According to PMC11858513, “Antibiofilm Activities of Tritrpticin Analogs Against Pathogenic Pseudomonas aeruginosa PA01 Strains” (Molecules, 2025):
In brackets after ≈: the same amount, converted by molar mass. Residues, ends and D or L forms follow the SMILES beside them.

What was measured:
S. aureus GFP [1] = format: cell-based, Staphylococcus aureus; settings: Table 4; Sa GFP; lowest concentration of peptide with no bacterial growth seen on the spot agar plate
Text: (§1) The methods to determine the MIC, MBIC and MBEC have been described in detail in our previous publication. The green fluorescent protein (GFP)-producing P. aeruginosa and S. aureus strains that were used in this work were also described in the earlier publication. Fluorescence detection was used as the main method to estimate the number of cells entrapped in the biofilm matrix. The methodology used for evaluation of the antibiofilm properties against an original Pseudomonas PA01 strain by crystal violet dye staining and the use of the Calgary biofilm device has been described elsewhere. The regular PA01 strain was provided by Dr. J. Harrison, Calgary. All measurements were carried out on an Eppendorf AF2200 plate reader. Every 96-well plate included controls for bacterial cell growth without peptide treatment and media alone. All measurements were carried out in triplicate, and the values in the figures represent the average and the error bars are standard deviation.

P. aeruginosa PAO1 GFP [2] = assay: MBEC, biofilm eradication, GFP fluorescence method; format: cell-based, Pseudomonas aeruginosa; settings: Table 2, BM2 medium, mean of three biological replicates
Method: (§2) Figure 1 The MIC (A), MBIC (B) and MBEC (C) values for the tritrpticin analog peptides were assessed against Pa PAO1 GFP. The MIC values were determined by measuring the absorbance of bacterial cells at 600 nm. The MBIC and MBEC values were determined by recording the fluorescence at 480 nm and 530 nm from the biofilms of GFP-expressing PAO1. Three biological replicates were run for each test sample, and the mean was calculated for the recorded absorption or fluorescence values. In the graphs, the error bars represent the standard deviation (±SD).
(§3) Figure 2 The MIC (A), MBIC (B) and MBEC (C) values for the tritrpticin-Lys derivative peptides were assessed against Pa PAO1 GFP. The MIC values were determined by measuring the absorbance of bacterial cells at 600 nm. The MBIC and MBEC values were determined by recording the fluorescence at 480 nm and 530 nm from the biofilms of GFP-expressing PAO1. Three replicates were run for each sample, the values were averaged and the error bars represent the standard deviation (±SD).
as §1

S. aureus GFP [3] = assay: MBIC, GFP fluorescence method; format: cell-based, Staphylococcus aureus; settings: Table 4, Sa GFP, 10% TSB and 0.1% glucose, mean of three biological replicates
Method: as §2, with “3” for “1”, “Sa” for “Pa PAO1”, “Sa.” for “PAO1.”
as §1

S. aureus GFP [4] = assay: MBEC, GFP fluorescence method; format: cell-based, Staphylococcus aureus; settings: Table 4, Sa GFP, 10% TSB and 0.1% glucose, mean of three biological replicates
Method: as §2, with “3” for “1”, “Sa” for “Pa PAO1”, “Sa.” for “PAO1.”
as §1

P. aeruginosa PAO1 GFP [5] = assay: MIC against planktonic cells, absorbance at 600 nm; format: cell-based, Pseudomonas aeruginosa; settings: Table 2, BM2 medium, absorbance 600 nm, mean of three biological replicates
Method: as §2, §3, §1

P. aeruginosa PAO1 GFP [6] = assay: MBIC, prevention of biofilm formation, GFP fluorescence method; format: cell-based, Pseudomonas aeruginosa; settings: Table 2, BM2 medium, mean of three biological replicates
Method: as §2, §3, §1

P. aeruginosa PAO1 [7] = format: cell-based; settings: for MBRC (CV at 595 nm) LD50: PAO1; for MBIC (CV at 595 nm) LD50 / MBIC (CV at 595 nm) LD90 / MBRC (CV at 595 nm) LD90: Table 5, PAO1, 1x BM2, crystal violet at 595 nm, mean of three biological replicates; for MBRC (CV at 595 nm) LD90: minimum biofilm reduction concentration
Method: (§4) We note the close agreement with the MBIC and MBEC values determined by the fluorescence and CV methods, similar to what we found in our previous work for an S. aureus MRSA strain [23]. We also re-evaluated the MBEC values that are measured using the Calgary biofilm device (CBD), where biofilms form on pegs, rather than at the bottom of the 96-well plates. […] In particular, we find that the single Pro9Ala Tritrp-P9A-substituted version has better MIC, MBIC and MBEC activities than the parent peptide as well as the Tritrp-P59A analog with both prolines substituted to Ala.
(§5) Figure 4 The MIC (A), MBIC (B) and MBRC (C) values for the peptides were assessed against P. aeruginosa PAO1 in the presence of 1× BM2. The inhibition of planktonic cells, the inhibition of biofilm cells and the reduction in biofilm cells were determined for the peptides by recording of the planktonic cells at 600 nm and quantification of biofilms formed by Pa PAO1 using crystal violet at 595 nm, respectively. Three biological replicates were run for each test sample, and the mean was calculated for the recorded absorption values. Data points with error bars indicate the standard deviation (±SD).
(§6) Figure 6 The MIC (A), MBIC (B) and MBEC (C) values for the tritrpticin-Lys derivatives against P. aeruginosa PAO1 were assessed by the crystal violet (CV) assay for the measurement of inhibition of biofilm formation and eradication of biofilm cells, respectively. The biofilm cells were rinsed, stained with 0.1% crystal violet for 15 min and then rinsed again. The CV was released from biofilm cells by the addition of 95% ethanol and quantified by reading on a spectrometer at 595 nm. Three replicates were run for each sample, the values were averaged and the error bars represent the standard deviation (±SD).
as §1

P. aeruginosa PAO1 [8] = format: cell-based, Pseudomonas aeruginosa; settings: Table 5; PAO1, 1x BM2; biofilms on pegs, cells plated and counted; three biological replicates
Method: as §4
Figure 5 The MBEC values for the peptides were assessed against P. aeruginosa PAO1 in the presence of 1× BM2 medium. The eradication of biofilm cells was determined for the peptides using the counting of biofilm cells formed by Pa PAO1. Three biological replicates were run for each test sample, and the mean was calculated for counted cell values. Data points with error bars indicate the standard deviation (±SD).
as §1

S. aureus GFP [9] = assay: MIC against planktonic cells, absorbance at 600 nm; format: cell-based, Staphylococcus aureus; settings: Table 4; Sa GFP, 10% TSB and 0.1% glucose; absorbance 600 nm; mean of three biological replicates
Method: as §2, with “3” for “1”, “Sa” for “Pa PAO1”, “Sa.” for “PAO1.”
as §1

P. aeruginosa PAO1 [10] = format: cell-based, Pseudomonas aeruginosa; settings: Table 5; regular PAO1 (no GFP), 1x BM2; absorbance 600 nm; mean of three biological replicates
Method: as §5, §6, §1

Row | Compound | MBC Agar Plate (S. aureus GFP [1]) [µM] | MBEC at 488 and 530 nm LD50 (P. aeruginosa PAO1 GFP [2]) [µmol/L] | MBEC at 488 and 530 nm LD90 (P. aeruginosa PAO1 GFP [2]) [µmol/L] | MBIC at 488 and 530 nm LD50 (S. aureus GFP [3]) [µmol/L] | MBIC at 488 and 530 nm LD90 (S. aureus GFP [3]) [µmol/L] | MBEC at 488 and 530 nm LD50 (S. aureus GFP [4]) [µmol/L] | MBEC at 488 and 530 nm LD90 (S. aureus GFP [4]) [µmol/L] | MIC at 600 nm LD50 (P. aeruginosa PAO1 GFP [5]) [µM] | MIC at 600 nm LD90 (P. aeruginosa PAO1 GFP [5]) [µM] | MBIC at 488 and 530 nm LD50 (P. aeruginosa PAO1 GFP [6]) [µmol/L] | MBIC at 488 and 530 nm LD90 (P. aeruginosa PAO1 GFP [6]) [µmol/L] | MBRC (CV at 595 nm) LD50 (P. aeruginosa PAO1 [7]) [µmol/L] | MBIC (CV at 595 nm) LD50 (P. aeruginosa PAO1 [7]) [µmol/L] | MBIC (CV at 595 nm) LD90 (P. aeruginosa PAO1 [7]) [µmol/L] | MBRC (CV at 595 nm) LD90 (P. aeruginosa PAO1 [7]) [µmol/L] | MBEC from Calgary Biofilm Device (CBD) LD50 (P. aeruginosa PAO1 [8]) [µmol/L] | MBEC from Calgary Biofilm Device (CBD) LD90 (P. aeruginosa PAO1 [8]) [µmol/L] | MIC at 600 nm LD50 (S. aureus GFP [9]) [µM] | MIC at 600 nm LD90 (S. aureus GFP [9]) [µM] | MIC at 600 nm LD50 (P. aeruginosa PAO1 [10]) [µM] | also measured
1 | CC(C)C[C@H](NC(=O)[C@H](Cc1ccccc1)NC(=O)[C@@H]1CCCN1C(=O)[C@H](Cc1c[nH]c2ccccc12)NC(=O)[C@H](Cc1c[nH]c2ccccc12)NC(=O)[C@H](Cc1c[nH]c2ccccc12)NC(=O)[C@H](C)NC(=O)[C@H](Cc1ccccc1)NC(=O)[C@H](CCCNC(=N)N)NC(=O)[C@H](CCCNC(=N)N)NC(=O)[C@@H](N)C(C)C)C(=O)N[C@@H](CCCNC(=N)N)C(=O)N[C@@H](CCCNC(=N)N)C(N)=O [Tritrp-P5A] (H-VRRFAWWWPFLRR-NH2) | 4 (≈ 7.5 µg/mL) | 64 | 64 | 1 | 4 | 2 | 4 | 4 (≈ 7.5 µg/mL) | 8 (≈ 15 µg/mL) | 4 | 8 | 32 | 8 | 8 | 32 | 32 | 128 | 1 (≈ 1.88 µg/mL) | 2 (≈ 3.75 µg/mL) | 4 (≈ 7.5 µg/mL) | MIC at 600 nm LD90 (P. aeruginosa PAO1 [10]): 8 µM (≈ 15 µg/mL)
2 | CC(C)C[C@H](NC(=O)[C@H](Cc1ccccc1)NC(=O)[C@H](C)NC(=O)[C@H](Cc1c[nH]c2ccccc12)NC(=O)[C@H](Cc1c[nH]c2ccccc12)NC(=O)[C@H](Cc1c[nH]c2ccccc12)NC(=O)[C@@H]1CCCN1C(=O)[C@H](Cc1ccccc1)NC(=O)[C@H](CCCCN)NC(=O)[C@H](CCCCN)NC(=O)[C@@H](N)C(C)C)C(=O)N[C@@H](CCCCN)C(=O)N[C@@H](CCCCN)C(N)=O [Tritrp-P9A-Lys] (H-VKKFPWWWAFLKK-NH2) | 8 (≈ 14.1 µg/mL) | 4 | 64 | 2 | 4 | 1 | 8 | 4 (≈ 7.05 µg/mL) | 8 (≈ 14.1 µg/mL) | 8 | 8 | 32 | 8 | 16 | 64 | 64 | 64 | 1 (≈ 1.76 µg/mL) | 4 (≈ 7.05 µg/mL) | 4 (≈ 7.05 µg/mL) | MIC at 600 nm LD90 (P. aeruginosa PAO1 [10]): 8 µM (≈ 14.1 µg/mL)
3 | CC(C)C[C@H](NC(=O)[C@H](Cc1ccccc1)NC(=O)[C@H](C)NC(=O)[C@H](Cc1c[nH]c2ccccc12)NC(=O)[C@H](Cc1c[nH]c2ccccc12)NC(=O)[C@H](Cc1c[nH]c2ccccc12)NC(=O)[C@H](C)NC(=O)[C@H](Cc1ccccc1)NC(=O)[C@H](CCCCN)NC(=O)[C@H](CCCCN)NC(=O)[C@@H](N)C(C)C)C(=O)N[C@@H](CCCCN)C(=O)N[C@@H](CCCCN)C(N)=O [Tritrp-P59A-Lys] (H-VKKFAWWWAFLKK-NH2) | 4 (≈ 6.95 µg/mL) | 32 | 128 | 2 | 2 | 2 | 4 | 4 (≈ 6.95 µg/mL) | 4 (≈ 6.95 µg/mL) | 4 | 4 | 64 | 4 | 8 | 64 | 64 | 128 | 2 (≈ 3.47 µg/mL) | 2 (≈ 3.47 µg/mL) | 4 (≈ 6.95 µg/mL) | MIC at 600 nm LD90 (P. aeruginosa PAO1 [10]): 8 µM (≈ 13.9 µg/mL)
4 | CC(C)C[C@H](NC(=O)[C@H](Cc1ccccc1)NC(=O)[C@@H]1CCCN1C(=O)[C@H](Cc1ccccc1)NC(=O)[C@H](Cc1ccccc1)NC(=O)[C@H](Cc1ccccc1)NC(=O)[C@@H]1CCCN1C(=O)[C@H](Cc1ccccc1)NC(=O)[C@H](CCCNC(=N)N)NC(=O)[C@H](CCCNC(=N)N)NC(=O)[C@@H](N)C(C)C)C(=O)N[C@@H](CCCNC(=N)N)C(=O)N[C@@H](CCCNC(=N)N)C(N)=O [Tritrp-W678F] (H-VRRFPFFFPFLRR-NH2) | 8 (≈ 14.3 µg/mL) | 32 | 64 | 1 | 1 | 2 | 4 | 32 (≈ 57.1 µg/mL) | >64 | 32 | 64 | 128 | 64 | >64 | >128 | 128 | 128 | 0.5 (≈ 0.892 µg/mL) | 0.5 (≈ 0.892 µg/mL) | 32 (≈ 57.1 µg/mL) | MIC at 600 nm LD90 (P. aeruginosa PAO1 [10]): >64 µM
